Format in all cases: cell-based
In one assay the target is T1, human TLR9 (Homo sapiens, UniProt Q9NR96).
T1 construct: host or cells: HEK-Blue cells
T1 sequence (Q9NR96 26-1032): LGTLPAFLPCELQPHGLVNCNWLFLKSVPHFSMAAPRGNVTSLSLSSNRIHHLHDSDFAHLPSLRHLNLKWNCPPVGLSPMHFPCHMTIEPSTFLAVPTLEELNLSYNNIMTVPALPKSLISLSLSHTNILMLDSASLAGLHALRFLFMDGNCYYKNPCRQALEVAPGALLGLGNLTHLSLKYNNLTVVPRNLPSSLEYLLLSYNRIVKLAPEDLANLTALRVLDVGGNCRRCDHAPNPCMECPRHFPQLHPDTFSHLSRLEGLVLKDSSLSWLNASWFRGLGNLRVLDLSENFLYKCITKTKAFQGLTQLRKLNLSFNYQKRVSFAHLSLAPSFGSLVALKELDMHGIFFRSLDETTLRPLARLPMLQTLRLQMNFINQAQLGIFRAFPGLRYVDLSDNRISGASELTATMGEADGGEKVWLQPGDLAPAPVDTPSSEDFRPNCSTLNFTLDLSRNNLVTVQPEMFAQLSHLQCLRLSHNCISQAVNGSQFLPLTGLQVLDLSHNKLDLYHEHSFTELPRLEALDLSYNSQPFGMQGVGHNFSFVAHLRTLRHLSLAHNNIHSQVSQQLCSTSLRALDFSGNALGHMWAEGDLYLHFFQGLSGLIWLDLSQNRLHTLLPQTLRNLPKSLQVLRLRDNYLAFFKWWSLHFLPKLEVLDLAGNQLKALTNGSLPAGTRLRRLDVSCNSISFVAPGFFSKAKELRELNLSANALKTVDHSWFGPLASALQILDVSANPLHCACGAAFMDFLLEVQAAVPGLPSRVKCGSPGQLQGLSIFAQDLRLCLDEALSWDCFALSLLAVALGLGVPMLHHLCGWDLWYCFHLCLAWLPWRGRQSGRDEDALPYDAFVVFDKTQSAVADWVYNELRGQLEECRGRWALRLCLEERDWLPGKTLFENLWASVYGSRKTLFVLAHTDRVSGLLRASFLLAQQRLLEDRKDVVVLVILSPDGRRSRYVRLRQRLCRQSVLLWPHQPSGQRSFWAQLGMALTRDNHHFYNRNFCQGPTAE
The experiment in a line: TLR9 inhibition reporter assay (HEK-Blue SEAP reporter, ODN2006 stimulation). Particulars: HEK-Blue cells overexpressing human TLR9, SEAP reporter, ODN2006 5 nM, 22 hour incubation. The method in brief: (§1)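 Human TLR7/8/9 HEK-Blue reporter lines; dose range 0.05 nM–50 μM; 30 min RT preincubation; stimulus gardiquimod 7.5 μM / R848 15.9 μM / ODN2006 5 nM respectively; 22 h, 37 °C; SEAP detected colorimetrically.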
A general note: Reporter assays use an easily measured gene product as a stand-in for the process of interest.

The target of a further assay is T2, human TLR7 (Homo sapiens, UniProt Q9NYK1).
T2 construct: host or cells: HEK-Blue cells
T2 sequence (Q9NYK1 27-1049): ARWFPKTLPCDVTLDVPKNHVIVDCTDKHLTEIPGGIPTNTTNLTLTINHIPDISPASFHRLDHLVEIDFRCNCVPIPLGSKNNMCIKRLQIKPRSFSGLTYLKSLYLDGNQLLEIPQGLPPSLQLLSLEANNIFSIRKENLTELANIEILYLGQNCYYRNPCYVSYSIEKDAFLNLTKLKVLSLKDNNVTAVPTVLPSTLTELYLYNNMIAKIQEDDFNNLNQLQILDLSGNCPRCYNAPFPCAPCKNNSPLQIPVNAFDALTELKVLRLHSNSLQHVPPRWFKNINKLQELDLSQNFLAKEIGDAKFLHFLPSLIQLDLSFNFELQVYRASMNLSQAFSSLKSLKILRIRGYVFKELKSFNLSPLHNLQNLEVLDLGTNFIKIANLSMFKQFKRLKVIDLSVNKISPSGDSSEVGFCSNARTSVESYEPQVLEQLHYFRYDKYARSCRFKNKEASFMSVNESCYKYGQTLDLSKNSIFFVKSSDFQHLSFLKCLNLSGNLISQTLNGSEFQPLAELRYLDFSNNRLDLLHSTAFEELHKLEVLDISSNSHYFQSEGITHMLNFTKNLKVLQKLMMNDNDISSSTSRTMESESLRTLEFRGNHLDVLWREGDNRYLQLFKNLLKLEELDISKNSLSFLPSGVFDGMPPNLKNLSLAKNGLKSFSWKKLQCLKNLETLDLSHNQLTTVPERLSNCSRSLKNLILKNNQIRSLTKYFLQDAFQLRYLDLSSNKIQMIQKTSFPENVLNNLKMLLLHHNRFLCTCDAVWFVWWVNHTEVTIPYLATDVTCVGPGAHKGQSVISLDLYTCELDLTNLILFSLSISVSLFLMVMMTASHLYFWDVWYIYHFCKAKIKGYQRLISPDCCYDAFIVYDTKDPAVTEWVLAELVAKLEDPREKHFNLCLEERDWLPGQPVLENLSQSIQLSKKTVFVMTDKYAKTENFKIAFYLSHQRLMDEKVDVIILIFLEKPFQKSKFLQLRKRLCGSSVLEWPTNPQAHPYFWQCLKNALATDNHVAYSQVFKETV
Put plainly: TLR7 inhibition reporter assay (HEK-Blue SEAP reporter, gardiquimod stimulation). Particulars: HEK-Blue cells overexpressing human TLR7, SEAP reporter, gardiquimod 7.5 μM, 22 hour incubation. The method in brief: as §1

In the next assay the target is T3, human TLR8 (Homo sapiens, UniProt Q9NR97).
T3 construct: host or cells: HEK-Blue cells
T3 sequence (Q9NR97 27-1041): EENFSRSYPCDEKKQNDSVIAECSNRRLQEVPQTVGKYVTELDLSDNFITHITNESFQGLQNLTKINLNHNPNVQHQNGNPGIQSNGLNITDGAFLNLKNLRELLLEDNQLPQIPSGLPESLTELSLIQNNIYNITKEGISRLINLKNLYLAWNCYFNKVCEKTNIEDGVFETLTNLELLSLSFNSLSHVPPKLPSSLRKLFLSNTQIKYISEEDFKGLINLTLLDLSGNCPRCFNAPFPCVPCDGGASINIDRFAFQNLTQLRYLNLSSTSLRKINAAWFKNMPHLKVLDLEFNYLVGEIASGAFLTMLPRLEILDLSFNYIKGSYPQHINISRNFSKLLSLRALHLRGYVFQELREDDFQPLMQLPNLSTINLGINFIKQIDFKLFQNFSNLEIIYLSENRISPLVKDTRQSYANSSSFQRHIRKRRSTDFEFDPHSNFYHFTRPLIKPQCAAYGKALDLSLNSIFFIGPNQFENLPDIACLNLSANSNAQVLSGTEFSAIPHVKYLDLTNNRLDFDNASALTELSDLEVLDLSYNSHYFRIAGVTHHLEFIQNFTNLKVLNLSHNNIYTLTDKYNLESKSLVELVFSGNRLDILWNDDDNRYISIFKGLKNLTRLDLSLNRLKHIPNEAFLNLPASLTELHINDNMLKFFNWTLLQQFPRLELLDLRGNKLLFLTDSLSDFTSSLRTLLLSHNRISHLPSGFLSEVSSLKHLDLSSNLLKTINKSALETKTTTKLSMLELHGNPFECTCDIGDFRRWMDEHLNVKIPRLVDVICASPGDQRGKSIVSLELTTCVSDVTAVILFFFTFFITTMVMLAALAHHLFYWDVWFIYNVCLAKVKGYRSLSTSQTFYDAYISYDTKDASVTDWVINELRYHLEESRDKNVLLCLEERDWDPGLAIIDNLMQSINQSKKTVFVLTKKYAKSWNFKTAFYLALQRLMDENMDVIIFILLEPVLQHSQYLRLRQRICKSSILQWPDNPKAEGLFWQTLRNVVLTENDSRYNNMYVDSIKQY
The experiment in a line: TLR8 inhibition reporter assay (HEK-Blue SEAP reporter, R848 stimulation). To be noted: HEK-Blue cells overexpressing human TLR8, SEAP reporter, R848 15.9 μM, 22 hour incubation. The method in brief: as §1

Among the data in patent US11447466B2, “Substituted indole compounds useful as inhibitors of TLR7/8/9” (BRISTOL-MYERS SQUIBB COMPANY, priority 2017, dated 2022) are IC50 values, retold here.

pIC50: −log10 of the molar value.

With `Cc1c(-c2[nH]c3ccc(C4CCN(CC(=O)N(C)C)CC4)cc3c2C(C)C)nn(C)c(=O)c1C` [Example 130, 2-(4-(3-isopropyl-2-(1,4,5-trimethyl-6-oxo-1,6-dihydropyridazin-3-yl)-1H-indol-5-yl)piperidin-1-yl)-N,N-dimethylacetamide], the pIC50 against human TLR9 is 5.07; at human TLR7, 6.54; at human TLR8 it was 7.59.
Turning to `COCCCN1CCC(c2ccc3[nH]c(-c4cn(C)c(=O)c(Cl)c4C)c(C(C)C)c3c2)CC1` [Example 99, 3-chloro-5-(3-isopropyl-5-(1-(3-methoxypropyl)piperidin-4-yl)-1H-indol-2-yl)-1,4-dimethylpyridin-2(1H)-one], the pIC50 on human TLR9 is 5.30; at human TLR7, 8.15; against human TLR8 it was 7.99.
Regarding `CCCN1CCC(c2ccc3[nH]c(-c4cc(-c5cncc(C)c5)c(=O)n(C)c4)c(C(C)C)c3c2)CC1` [Example 332, 5-(3-isopropyl-5-(1-propylpiperidin-4-yl)-1H-indol-2-yl)-1,5′-dimethyl-[3,3′-bipyridin]-2(1H)-one], the pIC50 is 6.10 against human TLR9, 8.31 against human TLR7 and 8.96 at human TLR8.
In the same order, the values of `Cc1cc(-c2[nH]c3ccc(C4CCN(CC(C)C)CC4)cc3c2C(C)C)cn(C)c1=O` [Example 75, 5-(5-(1-isobutylpiperidin-4-yl)-3-isopropyl-1H-indol-2-yl)-1,3-dimethylpyridin-2(1H)-one] are 5.03, 8.30 and 8.25.
Regarding `Cc1c(-c2[nH]c3ccc(C4CCN(C(C)C(N)=O)CC4)cc3c2C(C)C)cn(C)c(=O)c1Cl` (stereo not drawn) [Example 156, 2-(4-(2-(5-chloro-1,4-dimethyl-6-oxo-1,6-dihydropyridin-3-yl)-3-isopropyl-1H-indol-5-yl)piperidin-1-yl)propanamide], the pIC50 against human TLR9 was 4.93; against human TLR7, 8.37; at human TLR8, 8.13.
As to `CCn1nc(-c2[nH]c3ccc(C4CCNCC4)cc3c2C(C)C)cc(C)c1=O` [Example 18, 2-ethyl-6-(3-isopropyl-5-(piperidin-4-yl)-1H-indol-2-yl)-4-methylpyridazin-3(2H)-one], the negative logarithm of the IC50 (pIC50) was 5.18 against human TLR9, 7.74 on human TLR7 and 7.83 against human TLR8.
For `Cc1cc(-c2[nH]c3ccc(C4CCN(Cc5cnn(C(C)C)c5)CC4)cc3c2C(C)C)cn(C)c1=O` [Example 227] the same measures were 5.52, 8.42 and 8.39.
For `Cc1nc(-c2[nH]c3ccc(C4CCNCC4)cc3c2C(C)C)cn(C)c1=O` [Example 12, 5-(3-isopropyl-5-(piperidin-4-yl)-1H-indol-2-yl)-1,3-dimethylpyrazin-2(1H)-one] the same measures were 5.28, 7.61 and 7.54.
On to `CC(C)c1c(-c2cc(-c3cncnc3)c(=O)n(C)c2)[nH]c2ccc(C3CCN(CC(C)(C)O)CC3)cc12` [Example 326, 5-(5-(1-(2-hydroxy-2-methylpropyl)piperidin-4-yl)-3-isopropyl-1H-indol-2-yl)-1-methyl-3-(pyrimidin-5-yl)pyridin-2(1H)-one], for which the pIC50 against human TLR9 was 5.78; against human TLR7 it was 8.21; on human TLR8, 9.22.
For `Cc1c(-c2[nH]c3ccc(C4CCN(C(=O)CN(C)C)CC4)cc3c2C(C)C)cc(C#N)c(=O)n1C` [Example 273, 5-(5-(1-(dimethylglycyl)piperidin-4-yl)-3-isopropyl-1H-indol-2-yl)-1,6-dimethyl-2-oxo-1,2-dihydropyridine-3-carbonitrile], the negative-log IC50 (pIC50) was 5.68 on human TLR9, 7.04 at human TLR7 and 7.80 against human TLR8.
For the molecule `COCCN1CCC(c2ccc3[nH]c(-c4cn(C)c(=O)c(Cl)c4C)c(C(C)C)c3c2)CC1` [Example 95, 3-chloro-5-(3-isopropyl-5-(1-(2-methoxyethyl)piperidin-4-yl)-1H-indol-2-yl)-1,4-dimethylpyridin-2(1H)-one], the pIC50 at human TLR9 was 5.22; at human TLR7, 8.15; against human TLR8, 8.11.
With `CCCN1CCC(c2ccc3[nH]c(-c4cc(-c5cnc(OC)nc5)c(=O)n(C)c4)c(C(C)C)c3c2)CC1` [Example 331, 5-(3-isopropyl-5-(1-propylpiperidin-4-yl)-1H-indol-2-yl)-3-(2-methoxypyrimidin-5-yl)-1-methylpyridin-2(1H)-one], the negative logarithm of the IC50 (pIC50) against human TLR9 is 5.57; on human TLR7 it was 8.20; against human TLR8, 8.02.
As to `Cc1cc(-c2[nH]c3ccc(C4CCN(C5CCOCC5)CC4)cc3c2C(C)C)cn(CC(C)C)c1=O` [Example 262, 1-isobutyl-5-(3-isopropyl-5-(1-(tetrahydro-2H-pyran-4-yl)piperidin-4-yl)-1H-indol-2-yl)-3-methylpyridin-2(1H)-one], the negative-log IC50 (pIC50) on human TLR9 is 5.67; on human TLR7, 7.32; at human TLR8, 7.28.

As usually defined, the pIC50 is the negative decadic logarithm of the IC50, by convention in mol/L.
